Assay results reported in ChEMBL document CHEMBL3885881, “DrugMatrix”.

Species on record: Rattus norvegicus
Assay: DrugMatrix - Regimen: Daily Repeat
Format: toxicity, organism-based, Sprague-Dawley
Parameters: regimen Daily Repeat, gender Male, age 6-8 weeks
Conditions: in vivo, po, route oral GAVAGE, vehicle 100 % WATER; for ABSOLUTE BASOPHIL / ABSOLUTE EOSINOPHIL / ABSOLUTE LYMPHOCYTE / ABSOLUTE MONOCYTE / ABSOLUTE SEGMENTED NEUTROPHIL / BASOPHIL / EOSINOPHIL / ERYTHROCYTE COUNT / HEMATOCRIT / HEMOGLOBIN / LEUKOCYTE COUNT / LYMPHOCYTE / MEAN CORPUSCULAR HEMOGLOBIN / MEAN CORPUSCULAR HEMOGLOBIN CONCENTRATION / MEAN CORPUSCULAR VOLUME / MONOCYTE / NEUTROPHIL / NUCLEATED RED BLOOD CELLS / PLATELET COUNT: tissue Blood; for ALANINE AMINOTRANSFERASE / ALBUMIN / ALKALINE PHOSPHATASE / ASPARTATE AMINOTRANSFERASE / BLOOD UREA NITROGEN / CARBON DIOXIDE / CHLORIDE / CHOLESTEROL / CREATINE PHOSPHOKINASE / CREATININE / GLUCOSE / LACTATE DEHYDROGENASE / LIPASE / PHOSPHORUS / POTASSIUM / SODIUM / TOTAL BILIRUBIN / TOTAL PROTEIN / URIC ACID: tissue Plasma
[1] = 31 mg/kg, 120 h, dose level Low, time 5 day
[2] = 2629 mg/kg, 72 h, dose level High, time 3 day
[3] = 2629 mg/kg, 120 h, dose level High, time 5 day

Nc1ccc(S(=O)(=O)Nc2nccs2)cc1 [SULFATHIAZOLE]
ABSOLUTE BASOPHIL [1]: 0 CELLS/uL
ABSOLUTE EOSINOPHIL [1]: 44 CELLS/uL
ABSOLUTE LYMPHOCYTE [1]: 11208.67 CELLS/uL
ABSOLUTE MONOCYTE [1]: 0 CELLS/uL
ABSOLUTE SEGMENTED NEUTROPHIL [1]: 914 CELLS/uL
BASOPHIL [1]: 0%
EOSINOPHIL [1]: 0.33%
ERYTHROCYTE COUNT [1]: 5.37 x10E6/uL
HEMATOCRIT [1]: 32.6%
HEMOGLOBIN [1]: 12.8 G/DL
LEUKOCYTE COUNT [1]: 12.17 x10E3/uL
LYMPHOCYTE [1]: 92%
MEAN CORPUSCULAR HEMOGLOBIN [1]: 23.87 pg
MEAN CORPUSCULAR HEMOGLOBIN CONCENTRATION [1]: 39.27 G/DL
MEAN CORPUSCULAR VOLUME [1]: 60.87 fL
MONOCYTE [1]: 0%
NEUTROPHIL [1]: 7.67%
NUCLEATED RED BLOOD CELLS [1]: 0 /100WBC
PLATELET COUNT [1]: 967.33 x10E3/uL
ALANINE AMINOTRANSFERASE [1]: 55 u/L
ALBUMIN [1]: 3.97 G/DL
ALKALINE PHOSPHATASE [1]: 332.33 u/L
ASPARTATE AMINOTRANSFERASE [1]: 80.33 u/L
BLOOD UREA NITROGEN [1]: 15.33 mg/dL
CARBON DIOXIDE [1]: 26.67 mmol/L
CHLORIDE [1]: 101.67 MEQ/L
CHOLESTEROL [1]: 68.33 mg/dL
CREATINE PHOSPHOKINASE [1]: 466 u/L
CREATININE [1]: 0.16 mg/dL
GLUCOSE [1]: 230.67 mg/dL
LACTATE DEHYDROGENASE [1]: 161.67 u/L
LIPASE [1]: 8.33 u/L
PHOSPHORUS [1]: 12.43 mg/dL
POTASSIUM [1]: 5.22 MEQ/L
SODIUM [1]: 142.17 MEQ/L
TOTAL BILIRUBIN [1]: 0.13 mg/dL
TOTAL PROTEIN [1]: 5.83 G/DL
URIC ACID [1]: 1.13 mg/dL
ABSOLUTE BASOPHIL [2]: 0 CELLS/uL
ABSOLUTE EOSINOPHIL [2]: 0 CELLS/uL
ABSOLUTE LYMPHOCYTE [2]: 13130 CELLS/uL
ABSOLUTE MONOCYTE [2]: 74.67 CELLS/uL
ABSOLUTE SEGMENTED NEUTROPHIL [2]: 1895.33 CELLS/uL
BASOPHIL [2]: 0%
EOSINOPHIL [2]: 0%
ERYTHROCYTE COUNT [2]: 6.25 x10E6/uL
HEMATOCRIT [2]: 39.77%
HEMOGLOBIN [2]: 15.4 G/DL
LEUKOCYTE COUNT [2]: 15.1 x10E3/uL
LYMPHOCYTE [2]: 87%
MEAN CORPUSCULAR HEMOGLOBIN [2]: 24.67 pg
MEAN CORPUSCULAR HEMOGLOBIN CONCENTRATION [2]: 38.77 G/DL
MEAN CORPUSCULAR VOLUME [2]: 63.6 fL
MONOCYTE [2]: 0.67%
NEUTROPHIL [2]: 12.33%
NUCLEATED RED BLOOD CELLS [2]: 0.33 /100WBC
PLATELET COUNT [2]: 1369.33 x10E3/uL
ALANINE AMINOTRANSFERASE [2]: 62 u/L
ALBUMIN [2]: 3.93 G/DL
ALKALINE PHOSPHATASE [2]: 291 u/L
ASPARTATE AMINOTRANSFERASE [2]: 83 u/L
BLOOD UREA NITROGEN [2]: 13.33 mg/dL
CARBON DIOXIDE [2]: 23.67 mmol/L
CHLORIDE [2]: 105.33 MEQ/L
CHOLESTEROL [2]: 68.67 mg/dL
CREATINE PHOSPHOKINASE [2]: 777 u/L
CREATININE [2]: 0.18 mg/dL
GLUCOSE [2]: 146.67 mg/dL
LACTATE DEHYDROGENASE [2]: 269.33 u/L
LIPASE [2]: 9.33 u/L
PHOSPHORUS [2]: 12.5 mg/dL
POTASSIUM [2]: 5.42 MEQ/L
SODIUM [2]: 148.07 MEQ/L
TOTAL BILIRUBIN [2]: 0.1 mg/dL
TOTAL PROTEIN [2]: 5.7 G/DL
URIC ACID [2]: 2.33 mg/dL
ABSOLUTE BASOPHIL [3]: 0 CELLS/uL
ABSOLUTE EOSINOPHIL [3]: 30.33 CELLS/uL
ABSOLUTE LYMPHOCYTE [3]: 11698 CELLS/uL
ABSOLUTE MONOCYTE [3]: 241.67 CELLS/uL
ABSOLUTE SEGMENTED NEUTROPHIL [3]: 1363.33 CELLS/uL
BASOPHIL [3]: 0%
EOSINOPHIL [3]: 0.33%
ERYTHROCYTE COUNT [3]: 6.23 x10E6/uL
HEMATOCRIT [3]: 38.77%
HEMOGLOBIN [3]: 14.67 G/DL
LEUKOCYTE COUNT [3]: 13.33 x10E3/uL
LYMPHOCYTE [3]: 87%
MEAN CORPUSCULAR HEMOGLOBIN [3]: 23.53 pg
MEAN CORPUSCULAR HEMOGLOBIN CONCENTRATION [3]: 37.83 G/DL
MEAN CORPUSCULAR VOLUME [3]: 62.27 fL
MONOCYTE [3]: 2%
NEUTROPHIL [3]: 10.67%
NUCLEATED RED BLOOD CELLS [3]: 0.33 /100WBC
PLATELET COUNT [3]: 1447 x10E3/uL
ALANINE AMINOTRANSFERASE [3]: 59.33 u/L
ALBUMIN [3]: 4.2 G/DL
ALKALINE PHOSPHATASE [3]: 266.67 u/L
ASPARTATE AMINOTRANSFERASE [3]: 58 u/L
BLOOD UREA NITROGEN [3]: 14.33 mg/dL
CARBON DIOXIDE [3]: 21.33 mmol/L
CHLORIDE [3]: 105 MEQ/L
CHOLESTEROL [3]: 64.33 mg/dL
CREATINE PHOSPHOKINASE [3]: 224.67 u/L
CREATININE [3]: 0.24 mg/dL
GLUCOSE [3]: 148.67 mg/dL
LACTATE DEHYDROGENASE [3]: 185.33 u/L
LIPASE [3]: 11.33 u/L
PHOSPHORUS [3]: 9.7 mg/dL
POTASSIUM [3]: 5.17 MEQ/L
SODIUM [3]: 145.03 MEQ/L
TOTAL BILIRUBIN [3]: 0.1 mg/dL
TOTAL PROTEIN [3]: 6 G/DL
URIC ACID [3]: 1.37 mg/dL
